Each structure is given as a SMILES string. Marks after values point to notes of the source that are not given here.

A short description of data set [1]: Intrinsic stain removal (tooth whitening) on human enamel specimens, CIELAB colour readings. Conditions: for Total Change (ΔE) in Intrinsic Stain Scores: 20 ml, 30 minute intervals, mean ± SD, n = 8; for Dose-response of tooth whitening (ΔE): 0.20% to 0.01% solutions. The text has this:
In the following Examples, human permanent teeth with natural intrinsic stains were obtained from oral surgeons. Selection of appropriate teeth was based on the presence of intrinsic stain after removal of exogenous stains using methods known in the art involving use of rubber cup polishing with an aqueous pumice slurry. A VITA® dental shade guide was used as a reference for tooth selection. Only specimens with a shade score of A3 or darker after drying were used in these experiments. The test specimens were comprised of cylinders of human enamel 3 mm in diameter mounted in a 10-mm-diameter black acrylic base. The circular pieces of human enamel were cut using a 3-mm diamond core drill (Continental). In order to cut the enamel, the human teeth were first mounted in 2-cm square blocks of self-curing dental acrylic with the labial surface exposed. Each block was then clamped into a small vise and immersed in a container of water to prevent the enamel from burning during the cutting process. Each immersed tooth was positioned directly under and perpendicular to the diamond core drill bit mounted on the end of an electric drill press. At high speed, the diamond core drill was lowered onto the tooth and gentle pressure was applied as the bit cut through the enamel and dentin. The 3-mm piece of cut enamel was then removed from the end of the diamond core drill and embedded with the aid of a circular mold into black, self-curing dental acrylic, providing circular blocks 10 mm in diameter. This was done in such a manner that the areas of tooth substance exposed by the drilling process were sealed by the acrylic, while the 3-mm surface enamel was left exposed. The finished tooth specimens were examined under a dissecting microscope. Specimens with imperfections were discarded. Acceptable specimens were thoroughly rinsed with distilled water, and refrigerated in a humidor until use.
In these experiments, stain on the teeth was measured using the following method. The amount of the intrinsic stain within the teeth was measured by taking color readings with a Minolta CM-503i Spectrophotometer with diffuse illumination/8° viewing angle and 3 mm aperture. Measurements over the entire visible color spectrum were obtained using the CIELAB (Commission Internationale de L'Eclairage, Recommendations on Uniform Color Spaces. Color Difference Equations. Psychometric color Terms, Suppl. 2 to CIE publication 15 (E-13.1) 1971/(TC-1.3), 1978, Paris: Bureau Central de la CIE, 1978) color scale. This scale quantifies color according to 3 parameters, L* (lightness-darkness value), a* (red-green chroma), and b* (yellow-blue chroma). In order to obtain reproducible readings, the enamel specimens were allowed to air-dry at room temperature for 30 minutes before color measurements were taken. When the specimens were exposed to air, the teeth became whiter as they dry within the first few minutes and the color parameters change dramatically, but stabilized after 30 minutes.
Measurements were obtained by aligning the center of the circular 3-mm segment of enamel directly over the 3-mm-diameter targeting aperture of the Minolta spectrophotometer, which enabled accurate positioning of the specimens for each test. An average of 3 color readings using the L*a*b* scale were taken for each specimen.
In this Example, methods of treating the tooth samples are described. Before treatment, the baseline L*a*b* color scores of the tooth specimens were determined and used to stratify the teeth samples into balanced groups of 8 specimens each. For testing, each tooth specimen was immersed in 20 ml of the respective test solution for 30 minutes. The test solutions were stirred at 60 rpm with a mechanical stirrer for the duration of the exposure.
Following each 30-minute treatment period, the specimens were rinsed and then placed back into fresh test solution. […] As a control group, 8 teeth were similarly treated in distilled water. […]

Data set [2] can be described thus: Hydrolysis of PAA standards in buffer (ABTS assay standard curve). Conditions: B(OH)3 buffer; standard concentrations in B(OH)3, pH 8.5 buffer. The data set is classed as physicochemical. Here is the method:
The standard curve was prepared as described below. A working stock of PAA was prepared by diluting 32% 10^4-fold to 0.4 mM in water (note: stock contained acetic acid). […] At ambient temperature, 50 to 100 uL of standard PAA dilution were added to 1 mL of the ABTS reagent. The solution was mixed well and incubated at ambient temperature for 3 minutes. The absorbance at 420 nm (or another chosen wavelength) was then measured.

The conditions of data set [3]: aqueous 1% (by weight) solution; ambient to oral range temperatures; cited from earlier work.
For data set [4] the following is noted: dilute 1% aqueous solution, cited from earlier work.

As to `OO` [H2O2, hydrogen peroxide], the “Total Change (ΔE) in Intrinsic Stain Scores” value (“Total Change (ΔE)” below) is listed as 6.21 ± 3.46^a in data set [1] (3% (positive control), Hour 1); 7.15 ± 2.96^a in data set [1] (3% (positive control), Hour 2); 7.28 ± 2.75^a in data set [1] (3% (positive control), Hour 4); 7.48 ± 2.95^a in data set [1] (3% (positive control), Hour 8); 7.77 ± 3.34^a in data set [1] (3% (positive control), Hour 10); 9.00 ± 4.07^a in data set [1] (3% (positive control), Hour 12). For the same compound, the “Total Change (ΔE)” value is 9.68 ± 3.85^a in data set [1] (3% (positive control), Hour 14) and 10.68 ± 3.51^a in data set [1] (3% (positive control), Hour 16).

For orientation: half-life means the time in which the quantity being followed falls by half. A high value points to slow loss. For the compound `CC(=O)OO` [Peracetic Acid, peracetic acid], the “Total Change (ΔE)” value in data set [1] (0.01% in 100 mmolar phosphate buffer, Hour 1) was 2.98 ± 2.57^b,c,d; in data set [1] (0.01% in 100 mmolar phosphate buffer, Hour 2), 4.06 ± 2.51^b; in data set [1] (0.01% in 100 mmolar phosphate buffer, Hour 4), 4.09 ± 2.33^b; in data set [1] (0.01% in 100 mmolar phosphate buffer, Hour 8) it was 5.11 ± 2.71^a; in data set [1] (0.01% in 100 mmolar phosphate buffer, Hour 10), 5.88 ± 2.55^a; in data set [1] (0.01% in 100 mmolar phosphate buffer, Hour 12), 6.79 ± 3.23^a. The “Total Change (ΔE)” value in data set [1] (0.01% in 100 mmolar phosphate buffer, Hour 14) is recorded as 7.13 ± 3.14^a; in data set [1] (0.01% in 100 mmolar phosphate buffer, Hour 16) it was 7.57 ± 3.05^a; in data set [1] (0.05% in 100 mmolar phosphate buffer, Hour 1) it was 3.41 ± 2.19^b,c,d; in data set [1] (0.05% in 100 mmolar phosphate buffer, Hour 2) it was 3.83 ± 1.81^b; in data set [1] (0.05% in 100 mmolar phosphate buffer, Hour 4), 4.72 ± 1.67^b; in data set [1] (0.05% in 100 mmolar phosphate buffer, Hour 8), 5.04 ± 1.72^a. For the same compound, the “Total Change (ΔE)” value in data set [1] (0.05% in 100 mmolar phosphate buffer, Hour 10) is 6.08 ± 1.25^a; in data set [1] (0.05% in 100 mmolar phosphate buffer, Hour 12) it was 6.55 ± 1.79^a; in data set [1] (0.05% in 100 mmolar phosphate buffer, Hour 14) it was 6.82 ± 1.91^a; in data set [1] (0.05% in 100 mmolar phosphate buffer, Hour 16), 7.72 ± 2.15^a; in data set [1] (0.10% in 100 mmolar phosphate buffer, Hour 1), 5.60 ± 2.69^a,b; in data set [1] (0.10% in 100 mmolar phosphate buffer, Hour 2), 5.38 ± 1.75^a,b. Besides, the “Total Change (ΔE)” value in data set [1] (0.10% in 100 mmolar phosphate buffer, Hour 4) is 6.09 ± 2.52^a,b; in data set [1] (0.10% in 100 mmolar phosphate buffer, Hour 8) it was 6.58 ± 2.94^a; in data set [1] (0.10% in 100 mmolar phosphate buffer, Hour 10) it was 7.05 ± 3.31^a; in data set [1] (0.10% in 100 mmolar phosphate buffer, Hour 12), 7.89 ± 3.47^a; in data set [1] (0.10% in 100 mmolar phosphate buffer, Hour 14), 8.71 ± 4.66^a; in data set [1] (0.10% in 100 mmolar phosphate buffer, Hour 16), 9.08 ± 4.24^a. Besides, the “Total Change (ΔE)” value is recorded as 5.31 ± 1.75^a,b,c in data set [1] (0.20% in 100 mmolar phosphate buffer, Hour 1); 6.60 ± 2.37^a in data set [1] (0.20% in 100 mmolar phosphate buffer, Hour 2); 7.37 ± 2.85^a in data set [1] (0.20% in 100 mmolar phosphate buffer, Hour 4); 7.54 ± 2.34^a in data set [1] (0.20% in 100 mmolar phosphate buffer, Hour 8); 7.72 ± 3.12^a in data set [1] (0.20% in 100 mmolar phosphate buffer, Hour 10); 8.53 ± 3.65^a in data set [1] (0.20% in 100 mmolar phosphate buffer, Hour 12). Also, the “Total Change (ΔE)” value in data set [1] (0.20% in 100 mmolar phosphate buffer, Hour 14) is recorded as 9.08 ± 3.81^a; in data set [1] (0.20% in 100 mmolar phosphate buffer, Hour 16), 9.34 ± 4.10^a. Further, in data set [1] (after 8 hours, ANOVA and SNK test, p < 0.05), the “Tooth whitening (ΔE) compared with hydrogen peroxide positive control” value was “statistically equivalent to the hydrogen peroxide positive control”. Moreover, the “Dose-response of tooth whitening (ΔE)” value in data set [1] (during the first four hours of treatment) is reported as “significant dose-response”; in data set [1] (up to 16 hours of treatment), “numerical dose-response effect”. The compound further came in with a half-life in data set [2] of 25 min. The “Whitening effect on teeth compared with 30% (by weight) aqueous hydrogen peroxide” value in data set [3] is “faster and superior whitening effect”. Further, the “Time to substantial decomposition” value in data set [4] (ambient temperatures) is given as no less than 30 days. In addition, the Storage stability result in data set [4] (storage at 3° C.) is reported as “significantly improves stability”.
